We go through eight compounds from ChEMBL document CHEMBL3853324, “Optimizing Protonation States for Selective Double-Strand DNA Photocleavage in Hypoxic Tumors: pH-Gated Transitions of Lysine Dipeptides” (J Med Chem, 2016).

Data set [1] concerns Escherichia coli. Description: Induction of Escherichia coli supercoiled pBR322 plasmid DNA photocleavage assessed as ratio of single stranded break to double stranded break formation per molecule at pH 6 at 15 uM measured after 6 mins of UV-irradiation by densitometric analysis.
Data set [2] concerns Escherichia coli. Description: Induction of Escherichia coli supercoiled pBR322 plasmid DNA photocleavage assessed as double stranded break formation per molecule at pH 6 at 15 uM measured after 4 mins of UV-irradiation by densitometric analysis.
Data set [3] is filed under the species Bos taurus. In words: Ratio of binding affinity to calf thymus DNA at pH 8 to binding affinity to calf thymus DNA at pH 6.
Data set [4] can be described thus: Dissociation constant, pKa of the compound in D2O for second ionization at 1 mM by H1-NMR analysis. In kind it is physicochemical.
Data set [5] is filed under the species Bos taurus. Description: Binding affinity to calf thymus DNA assessed as binding constant at 15 uM and pH 6 by UV-spectroscopic analysis.
The subject of data set [6] is Escherichia coli. In words: Induction of Escherichia coli supercoiled pBR322 plasmid DNA photocleavage assessed as single stranded break formation per molecule at pH 6 at 15 uM measured after 6 mins of UV-irradiation by densitometric analysis.
The subject of data set [7] is Escherichia coli. In words: Induction of Escherichia coli supercoiled pBR322 plasmid DNA photocleavage assessed as ratio of single stranded break to double stranded break formation per molecule at pH 6 at 15 uM measured after 8 mins of UV-irradiation by densitometric analysis.
A short description of data set [8]: Displacement of ethidium bromide from DNA (unknown origin) assessed as Stem-Volmer quenching constant at pH 8 by UV-spectroscopic analysis. Also noted: unit not given here.
Data set [9] deals with Escherichia coli. Description: Induction of Escherichia coli supercoiled pBR322 plasmid DNA photocleavage assessed as double stranded break formation per molecule at pH 6 at 15 uM measured after 8 mins of UV-irradiation by densitometric analysis.
The species named for data set [10] is Bos taurus. In words: Binding affinity to calf thymus DNA assessed as binding constant at 15 uM and pH 8 by UV-spectroscopic analysis.
A short description of data set [11]: Dissociation constant, pKa of the compound for first ionization at 10 uM by fluorescence analysis. The format is physicochemical.
Data set [12] can be described thus: Dissociation constant, pKa of the compound in D2O for first ionization at 1 mM by H1-NMR analysis. The format is physicochemical.
The subject of data set [13] is Escherichia coli. Description: Induction of Escherichia coli supercoiled pBR322 plasmid DNA photocleavage assessed as single stranded break formation per molecule at pH 6 at 15 uM measured after 4 mins of UV-irradiation by densitometric analysis.
Data set [14] concerns Escherichia coli. In words: Induction of Escherichia coli supercoiled pBR322 plasmid DNA photocleavage assessed as double stranded break formation per molecule at pH 6 at 15 uM measured after 6 mins of UV-irradiation by densitometric analysis.
Data set [15] in a line: Displacement of ethidium bromide from DNA (unknown origin) assessed as Stem-Volmer quenching constant at pH 6 by UV-spectroscopic analysis. Also noted: unit not given here.
The species entered for data set [16] is Bos taurus. Description: Binding affinity to calf thymus DNA assessed as binding constant at 15 uM and pH 7 by UV-spectroscopic analysis.
Data set [17] has as its system Escherichia coli. Description: Induction of Escherichia coli supercoiled pBR322 plasmid DNA photocleavage assessed as single stranded break formation per molecule at pH 6 at 15 uM measured after 8 mins of UV-irradiation by densitometric analysis.
Data set [18] can be described thus: Displacement of ethidium bromide from DNA (unknown origin) assessed as Stem-Volmer quenching constant at pH 7 by UV-spectroscopic analysis. Also noted: unit not given here.
The subject of data set [19] is Escherichia coli. In words: Induction of Escherichia coli supercoiled pBR322 plasmid DNA photocleavage assessed as ratio of single stranded break to double stranded break formation per molecule at pH 6 at 15 uM measured after 4 mins of UV-irradiation by densitometric analysis.
Data set [20] can be described thus: Dissociation constant, pKa of the compound for second ionization at 10 uM by fluorescence analysis. The format is physicochemical.
Data set [21] concerns Escherichia coli. In words: Induction of Escherichia coli supercoiled pBR322 plasmid DNA photocleavage at 15 uM and pH 6 in presence of NaN3 by densitometric analysis.
The test system of data set [22] is Escherichia coli. Description: Induction of Escherichia coli supercoiled pBR322 plasmid DNA photocleavage at 15 uM and pH 6 in presence of glycerol by densitometric analysis.
Data set [23] deals with Escherichia coli. Description: Induction of Escherichia coli supercoiled pBR322 plasmid DNA photocleavage at 15 uM and pH 6 in presence of DMSO by densitometric analysis.
Data set [24] relates to Escherichia coli. Description: Induction of Escherichia coli supercoiled pBR322 plasmid DNA photocleavage at 15 uM and pH 6 to 8 measured after 1 hr of UV-irradiation by densitometric analysis.
The test system of data set [25] is A-375. Description: Induction of DNA damage in human A375 cells assessed as abasic site formation at 3 uM preincubated for 1 hr followed by UV-irradiation for 2 hrs. The format is functional.
The subject of data set [26] is A-375. Description: Induction of DNA damage in human A375 cells assessed as abasic site formation at 3 uM preincubated for 1 hr followed by UV-irradiation for 2 hrs relative to control. In kind it is functional.

A word on the pKa: it is the negative logarithm of the acid dissociation constant.

Active and inactive are the calls of the source. The rule behind the calls is not given here. Some results are limits rather than exact numbers.

Consider `C[C@H](N)C(=O)NCCCC[C@H](N)C(=O)Nc1ccc(C#Cc2c(F)c(F)nc(F)c2F)cc1`, for which the Ratio is 9.1 in the data set with Escherichia coli [1], 10.5 in the data set listed under Bos taurus [3], 6.6 with Escherichia coli [7] and 9.4 in the data set on Escherichia coli [19]. Moreover, the Activity stood at 0.07 with Escherichia coli [2]; 1.7 in the data set on Escherichia coli [6]; 0.29 in the data set on Escherichia coli [9]; 0.6 in the data set with Escherichia coli [13]; 0.19 with Escherichia coli [14]; 1.9 with Escherichia coli [17]. The pKa at 1000 µM came to 7.4 in data set [4] and 7.3 in data set [12]. Besides, the Kb in the data set filed under Bos taurus [5] worked out at 2890; in the data set filed under Bos taurus [10], 30300; in the data set filed under Bos taurus [16], 8890. Moreover, the KSV in [8] worked out at 3.4; in data set [15] it was 6.8; in data set [18], 5.7. The same compound had a pKa at 10 µM in [11] of 7.3.
For the compound `N[C@@H](Cc1ccccc1)C(=O)NC[C@H](N)C(=O)Nc1ccc(C#Cc2c(F)c(F)nc(F)c2F)cc1`, the Ratio in the data set listed under Bos taurus [3] stood at 1.1. The Kb in the data set listed under Bos taurus [5] was determined as 22300; in the data set listed under Bos taurus [10] it was 23300; in the data set listed under Bos taurus [16], 14600. In addition, the pKa at 10 µM came to 7.8 in [20] and 6.3 in data set [11]. Further, the KSV in data set [8] was determined as 2.6; in [15], 9.4; in data set [18], 5.9.
For `NCC(=O)NCCC[C@H](N)C(=O)Nc1ccc(C#Cc2c(F)c(F)nc(F)c2F)cc1`, the Ratio in the data set filed under Bos taurus [3] is greater than 4. Moreover, the pKa at 1000 µM was 7.7 in data set [4] and 7.2 in data set [12]. Moreover, the Kb in the data set listed under Bos taurus [5] stood at 2830; in the data set listed under Bos taurus [10], 15000; in the data set filed under Bos taurus [16], 10500. Also, the figures for the KSV in data set [8], in [15] and in [18] were 1.5, 7 and 4.4, respectively. In addition, the outcome with Escherichia coli [21], in the data set with Escherichia coli [22] and with Escherichia coli [23] was Active. In addition, the pKa at 10 µM in data set [11] stood at 7.
With `N[C@@H](Cc1c[nH]c2ccccc12)C(=O)NCCCC[C@H](N)C(=O)Nc1ccc(C#Cc2c(F)c(F)nc(F)c2F)cc1`, the Ratio in the data set with Escherichia coli [1] came out at 5.3; in the data set filed under Bos taurus [3] it was 1.7; in the data set with Escherichia coli [7], 4.3. For the same compound, the Activity stood at 0 in the data set with Escherichia coli [2]; 0.8 with Escherichia coli [6]; 0.2 with Escherichia coli [9]; 0.7 in the data set with Escherichia coli [13]; 0.15 with Escherichia coli [14]; 0.9 in the data set on Escherichia coli [17]. Moreover, the figures for the Kb in the data set listed under Bos taurus [5], in the data set listed under Bos taurus [10] and in the data set filed under Bos taurus [16] were 10400, 18000 and 16800, respectively. Moreover, the KSV came to 5.7 in data set [8], 26 in data set [15] and 9.2 in [18]. The result in the data set on Escherichia coli [21], with Escherichia coli [22] and in the data set with Escherichia coli [23] was Active. In addition, the pKa at 10 µM in data set [11] stood at 7.3.
`C[C@H](N)C(=O)NCCC[C@H](N)C(=O)Nc1ccc(C#Cc2c(F)c(F)nc(F)c2F)cc1`: the Ratio in the data set listed under Bos taurus [3] was 4.6. Also, the results for the pKa at 1000 µM in [4] and in data set [12] were 7.8 and 7, respectively. Besides, the Kb in the data set filed under Bos taurus [5] was found to be 4440; in the data set filed under Bos taurus [10], 20200; in the data set listed under Bos taurus [16], 6750. For the same compound, the figures for the KSV in data set [8], in data set [15] and in data set [18] were 5.2, 11.1 and 7.8, respectively. For the same compound, the pKa at 10 µM in [11] is 6.6. For the same compound, the result in the data set with Escherichia coli [24] was Active.
Turning to `N[C@@H](Cc1ccccc1)C(=O)NCCC[C@H](N)C(=O)Nc1ccc(C#Cc2c(F)c(F)nc(F)c2F)cc1`, the Ratio in the data set filed under Bos taurus [3] was determined as 3. In addition, the pKa at 1000 µM in [4] and in data set [12] was 7.2 each time. The figures for the Kb in the data set listed under Bos taurus [5], in the data set filed under Bos taurus [10] and in the data set filed under Bos taurus [16] were 10700, 32100 and 12700, respectively. Also, the KSV in data set [8] stood at 6.3; in [15], 27.8; in data set [18], 23.6. In data set [11], the pKa at 10 µM was determined as 7.1. Further, the result in the data set with Escherichia coli [23] and in the data set on Escherichia coli [24] was Active.
As for `C[C@H](N)C(=O)NC[C@H](N)C(=O)Nc1ccc(C#Cc2c(F)c(F)nc(F)c2F)cc1`, the Ratio in the data set listed under Bos taurus [3] stood at 3.5. Moreover, the Kb is 5850 in the data set listed under Bos taurus [5], 20500 in the data set filed under Bos taurus [10] and 15000 in the data set filed under Bos taurus [16]. In addition, the pKa at 10 µM is 8.1 in [20] and 5.5 in [11]. Also, the figures for the KSV in [8], in data set [15] and in data set [18] were 3.1, 9 and 4.9, respectively. Further, in the data set with Escherichia coli [24], the outcome was Active.
`N[C@@H](Cc1ccccc1)C(=O)NCCCC[C@H](N)C(=O)Nc1ccc(C#Cc2c(F)c(F)nc(F)c2F)cc1`: the Activity amounted to 17 in the data set with A-375 [25]; 0 in the data set with Escherichia coli [2]; 1 in the data set on Escherichia coli [6]; 0.21 in the data set with Escherichia coli [9]; 0.7 in the data set with Escherichia coli [13]; 0.13 with Escherichia coli [14]. In addition, the Activity in the data set with Escherichia coli [17] was 1.7. The Ratio was found to be 8.04 in the data set with Escherichia coli [1], 5.7 in the data set listed under Bos taurus [3] and 8 in the data set on Escherichia coli [7]. The pKa at 1000 µM in [4] stood at 6.7; in [12], 6.6. Moreover, the Kb came out at 11700 in the data set filed under Bos taurus [5], 66700 in the data set listed under Bos taurus [10] and 13100 in the data set listed under Bos taurus [16]. Besides, the KSV in [8] is 6.7; in data set [15], 27.8; in data set [18], 9.2. This compound returned a pKa at 10 µM in [11] of 7.3. The “fold change (FC)” value in the data set with A-375 [26] is listed as 2.
